# Legend:
# [1] = tested on: HER3-ss+4aa/Gaussia Luciferase; test: Dox-Induced Her3-ss-Gluc Assay; type: cell-based; conditions: 24 hr Dox induction; 293FRT/TO cells; read-out: 24 hr Dox Inducible Her3(ss + 4)Gluc 293FRT/TO: Mean IC50
# Outline: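 Stable Flp-In 293 T-REx line expressing Gaussia luciferase fused to the HER3 signal sequence plus 4 amino acids under tetracycline-regulated (T-REx) control. Cells plated the day before, then treated with compound dilutions in DMSO/media containing doxycycline and incubated at 37° C., 5% CO2.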
# [2] = tested on: PD1-ss+10aa/Gaussia Luciferase; test: Dox-Induced PD1-ss-Gluc Assay; type: cell-based; conditions: 24 hr Dox induction; 293FRT/TO cells; read-out: 24 hr Dox Inducible PD1ssGluc 293FRT/TO: Mean IC50
# Outline: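 Doxycycline-induced expression of a PD1-ss+10aa/Gaussia luciferase reporter is measured in stable Flp-In 293 T-REx cells. Compound dilutions containing doxycycline are added one day after plating and incubated at 37 °C, 5% CO2. Values for unassigned stereocentres refer to stereoisomer mixtures.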
# [3] = tested on: IL-2-FL/Gaussia Luciferase; test: Dox Induced IL2-FL-Gluc Assay; type: cell-based; conditions: for IC50: 24 hr Dox induction, 293FRT/TO cells, read-out: 24 hr Dox Inducible IL2FLGluc 293FRT/TO: Mean IC50; for 24 hr Dox Inducible IL2FLGluc 293FRT/TO: IL2/PD1: ratio of IL2FLGluc IC50 to PD1ssGluc IC50
# Outline: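 Flp-In 293 T-REx cells stably carrying doxycycline-inducible full-length IL-2 (aa 1-153) fused at its C-terminus to Gaussia luciferase, selected with hygromycin and blasticidin. Cells were plated the day before, then treated with compounds in DMSO/media containing doxycycline at 37° C, 5% CO2.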
# [4] = tested on: multiple myeloma cell line U266B1; test: U266 Cell Viability Assay; type: cell-based, human; conditions: Homo sapiens, U-266, 48 h, U266B1 cells, Celltiter-Glo
# Outline: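 Cells grown in RPMI 1640 with 10% FBS, 2 mM glutamine and penicillin/streptomycin were exposed to compound dilutions in DMSO/media for 48 hours at 37° C., 5% CO2. Viability was read by CellTiter-Glo luminescence. Undefined stereocentres mean data for stereoisomer mixtures.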
# [5] = tested on: multiple myeloma cell line NCI-H929; test: H929 Cell Viability Assay; type: cell-based, human; conditions: Homo sapiens, NCI-H929, 48 h, NCI-H929 cells, Celltiter-Glo
# Outline: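 NCI-H929 cells, resuspended in RPMI 1640 with 10% FBS and 2 mM glutamine, were treated with compound dilutions in DMSO/media and incubated 48 hours at 37° C, 5% CO2. Viability was read by CellTiter-Glo luminescence. Compounds drawn without stereochemistry were tested as stereoisomer mixtures.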
# [6] = Liver Microsome Stability Assay (monkey); conditions: monkey liver microsomes, with NADPH, 1.0 uM compound
# Experimental: (§1) Stability of a compound was assessed in the presence of liver microsomes from various sources—mouse, rat, monkey and human liver microsomes. 1.0 uM compound, 0.4% DMSO in 0.1 M Potassium Phosphate with 1.0 mg/mL liver microsomes, were incubated at 37° C. with or without 1 mM NADPH. The samples were quenched at 0, and 30 minutes.
# [7] = tested on: TNFα-FL/Gaussia Luciferase; test: Dox Induced TNFα-FL-Gluc Assay; type: cell-based; conditions: for IC50: 24 hr Dox induction, 293FRT/TO cells, read-out: 24 hr Dox Inducible TNFaFLGluc 293FRT/TO: Mean IC50; for 24 hr Dox Inducible TNFaFLGluc 293FRT/TO: TNF/PD1: ratio of TNFaFLGluc IC50 to PD1ssGluc IC50
# Outline: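 Flp-In 293 T-REx cells stably expressing full-length TNFα (aa 1-233) fused at its C-terminus to Gaussia luciferase under tetracycline-regulated control were plated the day before assay. Compound dilutions in DMSO/media containing doxycycline were added and incubated at 37 °C, 5% CO2. Unspecified stereochemistry denotes stereoisomer mixtures.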
# [8] = Liver Microsome Stability Assay (rat); conditions: rat liver microsomes, with NADPH, 1.0 uM compound
# Experimental: as §1
# [9] = Liver Microsome Stability Assay (mouse); conditions: mouse liver microsomes, with NADPH, 1.0 uM compound
# Experimental: as §1
# [10] = Liver Microsome Stability Assay (human); conditions: human liver microsomes, with NADPH, 1.0 uM compound
# Experimental: as §1
IC50 [1],IC50 [2],IC50 [3],EC50 [4],EC50 [5],Liver Microsome Stability (Multiple Species): Monkey - % Remaining after 30 min w/NADPH [6],IC50 [7],Liver Microsome Stability (Multiple Species): Rat - % Remaining after 30 min w/NADPH [8],Liver Microsome Stability (Multiple Species): Mouse - % Remaining after 30 min w/NADPH [9],Liver Microsome Stability (Multiple Species): Human - % Remaining after 30 min w/NADPH [10],SMILES,24 hr Dox Inducible IL2FLGluc 293FRT/TO: IL2/PD1 [3],24 hr Dox Inducible TNFaFLGluc 293FRT/TO: TNF/PD1 [7]
2.1 µM,0.467 µM,6.09 µM,11.9 µM,7.91 µM,0.17%,13.9 µM,0.55%,0.64%,0.32%,"Cc1cccc(/C=C/c2csc(NC(=O)c3cccn3Cc3ccnc(F)c3)n2)n1 [Compound B59, (E)-1-((2-fluoropyridin-4-yl)methyl)-N-(4-(2-(6-methylpyridin-2-yl)vinyl)thiazol-2-yl)-1H-pyrrole-2-carboxamide]",13,29.7
0.784 µM,0.0206 µM,1.72 µM,> 22.2 µM,15.7 µM,0.12%,18.4 µM,0.46%,0.29%,0.37%,"CC(C)c1ccc(/C=C/c2csc(NC(=O)c3cccn3Cc3ccnc(F)c3)n2)nc1 [Compound B64, (E)-1-((2-fluoropyridin-4-yl)methyl)-N-(4-(2-(5-isopropylpyridin-2-yl)vinyl)thiazol-2-yl)-1H-pyrrole-2-carboxamide]",84,894
> 25 µM,0.12 µM,> 25 µM,> 25 µM,24.5 µM,0.08%,> 25 µM,4.75%,7.82%,0.18%,"CCn1cnc(/C=C/c2csc(NC(=O)c3cccn3Cc3ccnc(F)c3)n2)c1 [Compound B65, (E)-N-(4-(2-(1-ethyl-1H-imidazol-4-yl)vinyl)thiazol-2-yl)-1-((2-fluoropyridin-4-yl)methyl)-1H-pyrrole-2-carboxamide]",>210,>208
> 25 µM,15.5 µM,> 25 µM,> 25 µM,13.4 µM,0.35%,> 25 µM,0.18%,0.11%,0.09%,"CC(C)c1ccc(/C=C/c2csc(NC(=O)c3cccn3Cc3cccnc3)n2)nc1 [Compound B66, (E)-N-(4-(2-(5-isopropylpyridin-2-yl)vinyl)thiazol-2-yl)-1-(pyridin-3-ylmethyl)-1H-pyrrole-2-carboxamide]",>1.6,>1.61
18.5 µM,5.37 µM,19.1 µM,19.7 µM,21 µM,0.13%,> 25 µM,1.32%,2.2%,0.16%,"CC(C)c1nc(/C=C/c2csc(NC(=O)c3cccn3Cc3ccnc(F)c3)n2)cn1C [Compound B67, (E)-1-((2-fluoropyridin-4-yl)methyl)-N-(4-(2-(2-isopropyl-1-methyl-1H-imidazol-4-yl)vinyl)thiazol-2-yl)-1H-pyrrole-2-carboxamide]",3.6,>4.66

# Further lines, the molecule ahead of its results:
SMILES,IC50 [1],IC50 [2],IC50 [3],EC50 [4],EC50 [5],Liver Microsome Stability (Multiple Species): Monkey - % Remaining after 30 min w/NADPH [6],IC50 [7],Liver Microsome Stability (Multiple Species): Rat - % Remaining after 30 min w/NADPH [8],Liver Microsome Stability (Multiple Species): Mouse - % Remaining after 30 min w/NADPH [9],Liver Microsome Stability (Multiple Species): Human - % Remaining after 30 min w/NADPH [10],24 hr Dox Inducible IL2FLGluc 293FRT/TO: IL2/PD1 [3],24 hr Dox Inducible TNFaFLGluc 293FRT/TO: TNF/PD1 [7]
"Cc1c(/C=C/c2csc(NC(=O)c3cccn3Cc3ccncc3)n2)ncn1C(C)C [Compound B58, (E)-N-(4-(2-(1-isopropyl-5-methyl-1H-imidazol-4-yl)vinyl)thiazol-2-yl)-1-(pyridin-4-ylmethyl)-1H-pyrrole-2-carboxamide]",12.4 µM,0.0244 µM,> 19.7 µM,18.4 µM,15.4 µM,5.89%,2.31 µM,1.67%,2.14%,0.28%,>810,952
"O=C(Nc1nc(/C=C/c2ccc3c(n2)CCCC3)cs1)c1cccn1Cc1ccnc(F)c1 [Compound B60, (E)-1-((2-fluoropyridin-4-yl)methyl)-N-(4-(2-(5,6,7,8-tetrahydroquinolin-2-yl)vinyl)thiazol-2-yl)-1H-pyrrole-2-carboxamide]",0.725 µM,0.14 µM,1.75 µM,15.8 µM,12.8 µM,2.65%,> 25 µM,1.16%,0.45%,0.33%,13,>179
O=C(Nc1nc(/C=C/c2cccc(=O)[nH]2)cs1)c1cccn1Cc1ccnc(F)c1 [Compound B61],> 25 µM,> 25 µM,> 25 µM,> 25 µM,> 25 µM,0.5%,> 25 µM,12.3%,9.41%,0.96%,<=>1.0,<=>1.00
"O=C(Nc1nc(/C=C/c2cn3c(n2)CCC3)cs1)c1cccn1Cc1ccnc(F)c1 [Compound B62, (E)-N-(4-(2-(6,7-dihydro-5H-pyrrolo[1,2-a]imidazol-2-yl)vinyl)thiazol-2-yl)-1-((2-fluoropyridin-4-yl)methyl)-1H-pyrrole-2-carboxamide]",> 25 µM,0.321 µM,> 25 µM,> 25 µM,> 24.3 µM,2.64%,> 25 µM,2.51%,11.5%,0.2%,>78,>77.9
"CC(C)n1cnc(/C=C/c2csc(NC(=O)c3cccn3Cc3cccnc3)n2)c1 [Compound B63, (E)-N-(4-(2-(1-isopropyl-1H-imidazol-4-yl)vinyl)thiazol-2-yl)-1-(pyridin-3-ylmethyl)-1H-pyrrole-2-carboxamide]",> 25 µM,> 20.9 µM,> 25 µM,> 25 µM,> 25 µM,0.09%,> 25 µM,1.14%,0.49%,6.56%,<=>1.2,<=>1.20
